Reference: patent US20180092908A1, “SMALL MOLECULE OXIDIZERS OF PDI AND THEIR USE” (THE TRUSTEES OF COLUMBIA UNIVERSITY IN THE CITY OF NEW YORK, priority 2015, published 2018)
Read-outs that look alike come from different tables or passages of the source.

How the values were obtained:
[1] = target: T1, human catalytic PDI A1 a domain (PDIa) (Homo sapiens, UniProt P07237); assay: Isothermal titration calorimetry (ITC) binding to PDIa
T1 construct: made in house; host or cells: Escherichia coli BL21-Gold (DE3)
Experimental: All ITC experiments were carried out at 25° C. on MicoCal Auto-ITC200 system (GE Healthcare). Reduced PDIa was dialyzed into ITC buffer (20 mM sodium phosphate buffer pH 7.8) and loaded into a sample cell at 40 μM concentration. The compound solution was loaded into a syringe at 400 μM in the same ITC buffer with a final DMSO concentration at 0.4% (v/v). ITC titration experiments were carried out at 25° C. with 19 injections, 2 μl per injection, and 180 seconds between each injection. The reference cell power was set to 5 μcal/sec. A control experiment was performed for each compound, where each compound was titrated into buffer to account for heat released due to dilution. This background was subtracted from test data before a final dissociation constant was obtained. Data were analyzed using a one-site binding model in Origin 7.1 software. […] Gibbs free energy, ΔG, was calculated from equation ΔG=ΔH−TΔS. All other parameters, Ka, n, ΔH, ΔS, were determined directly from the titration data.
For ITC experiments with 16F16 pre-treatment, 40 μM PDIa (after dialysis into ITC buffer) was treated with 200 μM 16F16 for 12-15 hours at 4° C. Next day the whole solution was loaded into the sample cell. LOC14 at 400 μM in ITC buffer was loaded into syringe and titrated into PDIa+16F16 loaded cell. For control experiments, ITC buffer with 200 μM 16F16 was used in the cell, while 400 μM LOC14 in ITC buffer was used in the syringe.
The binding mode of LOC14 to PDIa was next investigated using isothermal titration calorimetry (ITC). ITC measures the heat released or absorbed during a biomolecular interaction. It is a direct analytical method for determining the binding and thermodynamic parameters, such as reaction stoichiometry (n), binding constants (Ka and Kd), enthalpy (ΔH), entropy (ΔS), and free energy (ΔG) of an interaction.

PC12 mHTT^Q103 cells = assay: Rescue of PC12 cells from mHTT^Q103 induced cell death (Alamar blue viability); type: cell-based; conditions: Table 5; for EC50: Rattus norvegicus, PC-12, read-out: Cell Viability Assay EC50
Description: PC12 mHTT^Q103 cells were a gift from Erik S. Schweitzer (UCLA School of Medicine, Los Angeles, Calif.). These cells are stably transfected with the first exon of human HTT gene containing the pathogenic 103 CAG/CAA repeat expansion, under the control of the ecdysteroid promoter (Aiken et al., 2004). The plasmid also contains a Bombyx mori ecdysone receptor gene fused at N-terminal with VP16 transactivation domain (Suhr et al., 1998; Vilaboa et al., 2011). Addition of the ecdysone analog, tebufenozide, to the cell culture medium is used to initiate the transcription of mutant HTT (Aiken et al., 2004).
PC12 mHTT^Q103 cells were cultured in DMEM containing 4.5 g/I glucose, 25 mM HEPES, sodium pyruvate, and no L-glutamine (Mediatech, cat. no. 15-018-CV), supplemented with 10% (v/v) Cosmic Calf serum, 2 mM L-glutamine, 100 units/mL of penicillin-streptomycin, and 0.5 mg/ml active geneticin. Cells were grown at 37° C., 9.5% CO2, and the medium was replaced with fresh medium every 2-3 days. To induce mHTT^Q103 expression for experiments, tebufenozide, a gift from Lynne Moore and Fred H. Gage (The Salk Institute for Biological Studies, La Jolla, Calif.), was added to the medium at 200 nM final concentration from 1 mM stock in 85% ethanol.
LOC mother plates with compounds at 4 mg/ml were thawed and spun down (1000 rpm, 20° C., 1 min) prior to use. Biomek FX (Beckman Coulter) robotic liquid dispenser was used to handle all liquid transferring and mixing. […] Two fold serial dilution was performed across five daughter plates by transferring 50 μl of compounds (at […]) from the D1 plate into 50 μl of PC12 medium in daughter plate D2, mixing, and then repeating the process for the remaining three plates. Daughter plate D1 with compounds at […], daughter plate D3 with compounds at 20 μl/ml and daughter plate D5 with compounds at 5 μl/ml were then used for the screen. Assay plates were set up by seeding tebufenozide-induced PC12 mHTT^Q103 cells into 384-well black, clear-bottom plates (Corning Inc. cat. no. 3712) at a density of 7,500 cells per well in 57 μl PC12 medium without geneticin. Three microliters of compound from the daughter plates (D1, D3, and D5) were added to the assay plates for a final compound concentration of 4 μl/ml, 1 μl/ml, and 0.25 μl/ml. Four wells containing uninduced PC12 mHTT^Q103 cells and four wells containing medium only, were also included on each plate as controls. The assay plates were incubated at 37° C., 9.5% CO2 for 48 hours. Twenty microliters of 40% Alamar blue (Life Technologies cat. no. DAL1100) solution in PC12 medium was added to each well (1:10 final dilution) and the plates were incubated for an additional 12-24 hours at 37° C., 9.5% CO2. Alamar blue fluorescence was read on a fluorescence plate reader (PerkinElmer Victor3) with 530 nm excitation filter and 590 nm emission filter. Each compound concentration was tested in triplicate.
The follow-up testing of primary screen hits was performed in a similar way. Fresh powder stocks of primary hits were re-ordered from vendors, dissolved in DMSO and tested in a two-fold serial dilution across 10 wells in both tebufenozide-induced and uninduced PC12 mHTT^Q103 cells. Dose-response curves were plotted as mean±SD and fit to either four-parameter sigmoidal (for uninduced cells) or bell-shaped (induced) function using Prism (GraphPad Software).
A cascade of two assays was used, involving both a phenotypic high-throughput screening (HTS) assay and an in vitro PDI reductase assay, to identify neuroprotective PDI-inhibiting compounds. […] Alamar blue was used as a fluorescent readout for viability after 48 hours of compound treatment and mHTT^Q103 induction. […] All the candidate hit compounds were re-tested in a two-fold dilution series.

[2] = target: T2, recombinant catalytic a domain of human PDI A1 (PDIa) (Homo sapiens, UniProt P07237); assay: Insulin aggregation assay (PDIa reductase activity); type: biochemical; conditions: Table 5
T2 construct: made in house; host or cells: Escherichia coli BL21-Gold (DE3)
Description: In this insulin aggregation assay (Xu et al., 2012; Jasuja et al., 2012; Khan et al., 2011; Smith et al., 2004), PDIa reduced the two disulfide bonds between the α- and β-chains of insulin, causing the β-chain to aggregate and precipitate, resulting in an increase in absorbance at 650 nm.
To investigate the mode of binding further and to determine whether the binding was reversible or irreversible, the recovery of enzymatic activity of PDIa after dilution of pre-formed concentrated PDIa-LOC14 complexes was analyzed. LOC14 (750 μM) was incubated with a concentrated solution of PDIa (500 μM). The mixture was then diluted 100-fold and PDI's enzymatic activity was measured in the insulin reduction assay. As a control, the same procedure was also performed on the sample containing an irreversible inhibitor, 16F16 (16F16 at 750 μM and PDIa at 500 μM). […] This illustrated that unlike 16F16, LOC14 binding to PDIa is reversible.

[3] = PDIa, Table 5, read-out: ITC Assay KD

T2 sequence (P07237 with tags, fused parts or gaps): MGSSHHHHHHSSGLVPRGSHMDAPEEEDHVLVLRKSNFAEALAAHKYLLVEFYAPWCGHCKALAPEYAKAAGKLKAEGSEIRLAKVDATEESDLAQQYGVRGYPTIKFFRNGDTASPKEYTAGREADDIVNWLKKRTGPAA
T1 sequence (P07237 with tags, fused parts or gaps): as above

| ITC Assay KD ([1]; PDIa, Table 5) | Insulin Assay (either active or inactive) [2] | SMILES | EC50 (PC12 mHTT^Q103 cells) | also measured |
| --- | --- | --- | --- | --- |
| KD = N/A irreversible or not active | not active | O=C(Nc1ccc(Oc2ccccc2)cc1)c1ccccc1S [LC-33] | 2940 nM |  |
|  |  | O=c1[nH]sc2ccccc12 [BIT fragment, 1,2,Benzisothiazol-3-one] |  | Kd ([1]; PDIa, Table 4, read-out: ITC KD): 142 nM |
|  | not active | O=c1ssc2ccccc12 [LC-48] |  |  |
| KD = N/A irreversible or not active | Active | O=C(C1CC1)N1CCN(Cn2sc3c(F)cccc3c2=O)CC1 [LC-43] | 7410 nM |  |
|  | Active | COCCn1sc2ccccc2c1=O [LC-32] | 700 nM | Kd [1, 3]: 158 nM |
|  | Active | Cc1nnc2s[nH]c(=O)c2c1C [LC-57] | 12200 nM |  |
| KD = N/A irreversible or not active | not active | O=c1c2ccccc2sn1Cc1ccc(Br)cc1 [LC-26] | 778 nM |  |
| KD = N/A irreversible or not active | not active | Cc1ccc(NC(=O)c2ccccc2S)c(Br)c1 [LC-34] | 3770 nM |  |
| KD = N/A irreversible or not active | not active | O=c1[nH]sc2c(C(F)(F)F)cccc12 [LC-41] |  |  |
| KD = N/A irreversible or not active | not active | C[C@@H](NC(=O)c1ccccc1S)c1ccccc1 [LC-28] | 808 nM |  |
| KD = N/A irreversible or not active | Active | NC(=O)c1cccc(F)c1SSc1c(F)cccc1C(N)=O [LC-44] | 7070 nM |  |
| KD = N/A irreversible or not active | not active | O=C(Nc1ccc(N2CCOCC2)cc1)c1ccccc1S [LC-21] | 696 nM |  |
| KD = N/A irreversible or not active | not active | O=C(C1CC1)N1CCN(Cn2sc3c(Cl)cccc3c2=O)CC1 [LC-39] |  |  |
|  | Active | O=c1c2cccnc2sn1CCN1CCCCC1 [LC-54] |  |  |
|  | not active | S=c1ssc2ccccc12 [LC-49] |  |  |
|  | Active | O=c1c2ccccc2sn1CN1CCN(Cc2ccccc2)CC1 [LC-22] | 310 nM | Kd [1, 3]: 173 nM |
| KD = N/A irreversible or not active | not active | O=c1[nH]sc2c(Cl)cccc12 [LC-38] |  |  |
| KD = N/A irreversible or not active | not active | O=C(C1CC1)N1CCN(Cn2sc3c(C(F)(F)F)cccc3c2=O)CC1 [LC-42] |  |  |
|  | Active | C[C@H](c1ccccc1)n1sc2ncccc2c1=O [LC-58] |  |  |
|  | Active | O=c1c2cccnc2sn1CCN1CCOCC1 [LC-55] |  |  |
| KD = N/A irreversible or not | not active | O=C(c1ccccc1)n1sc2ccccc2c1=O [LC-11] | > 50000 nM |  |
|  | Active | O=c1c2ccccc2sn1CN1CCOCC1 [LC-18] | 547 nM | Kd [1, 3]: 253 nM |
| KD = N/A irreversible or not active | not active | NC(=O)c1cccc(C(F)(F)F)c1SSc1c(C(N)=O)cccc1C(F)(F)F [LC-45] |  |  |
|  | not active | Cc1ccc(-n2sc3ccccc3c2=O)c(Br)c1 [LC-36] | 1590 nM | Kd [1, 3]: 25.3 nM |
| KD = N/A irreversible or not active | not active | O=c1c2ccccc2sn1-c1ccc(Oc2ccccc2)cc1 [LC-37] | 1680 nM |  |
|  | Active | O=c1c2cccnc2sn1CCC1CCNCC1 [LC-56] |  |  |
|  |  | O=C(C1CC1)N1CCN(Cn2oc3ccccc3c2=O)CC1 [Oxy-LOC14, 2-((4-(cyclopropanecarbonyl)piperazin-1-yl)methyl)benzo[d]isoxazol-3(2H)-one] |  | loss in binding affinity compared to LOC14 ([1]; ITC, PDIa): 35 fold; Kd ([1]; reduced PDIa 40 μM, compound 400 μM, 25° C., read-out: dissociation constant (Kd)): 2430 nM |
|  | Active | C[C@H](c1ccccc1)n1sc2ccccc2c1=O [LC-29] | 519 nM | Kd [1, 3]: 658 nM |
| KD = N/A irreversible or not active | not active | O=c1c2ccccc2sn1-c1ccc(Cc2ccccc2)cc1 [LC-25] | 1590 nM |  |

| SMILES | ITC Assay KD ([1]; PDIa, Table 5) | Insulin Assay (either active or inactive) [2] | EC50 (PC12 mHTT^Q103 cells) | also measured |
| --- | --- | --- | --- | --- |
| Cn1sccc1=O [LC-35] | KD = N/A irreversible or not active | Active |  | Cell Viability Assay EC50 (PC12 mHTT^Q103 cells): Not Active |
| O=C(NCc1ccc(Br)cc1)c1ccccc1S [LC-20] | KD = N/A irreversible or not active | not active t | > 50000 nM |  |
| O=C(Nc1cccc(F)c1)c1ccccc1S [LC-30] | KD = N/A irreversible or not active | not active | 2990 nM |  |
| O=c1[nH]sc2c(F)cccc12 [LC-40] | KD = N/A irreversible or not active | Active | 9320 nM |  |
